How the values were obtained:
[1] = test system: phosphorylated LRP6 in osteoblasts; test: Immunohistochemistry of phosphorylated LRP6 in femur sections, rats; type: in vivo, rat
Description: For the experiments in which rats or mice were administered PTH as single-dose injection, five-month-old male Sprague Dawley rats (Charles River Laboratories; Wilmington, Mass.) or two-month-old male C57BL/J6 mice (Jackson Laboratory; Bar Harbor, Me.) (6 per group) were administered a single dose of either vehicle (1 mM acetic acid in sterile PBS) or PTH (1-34) (Bachem Inc.; Torrance, Calif.) at 40 μg/kg in a volume of 100 μl. In the mouse model, mouse recombinant Wnt3a (R&D Systems; Minneapolis, Minn.) was injected at 25 μg/kg in a volume of 100 μl. All treatments were through bolus intravenous injection via the tail vein. Rats/mice were sacrificed at 0.5, 2, 8 and 24 hours after injection.
Formalin-fixed femur or tibia tissue sections of 5 μm thickness from rats or mice were processed with antigen retrieval and hydrogen peroxide treatment prior to incubation with primary monoclonal antibody specific for β-catenin (BD Biosciences; San Jose, Calif.), goat polyclonal antibody sclerostin (R&D Systems; Minneapolis, Minn.) or rabbit polyclonal phosphorylated LRP6 (Ab1490) for 1 hour at room temperature or overnight at 4° C. […] In the mouse model, numbers of total osteoblasts and numbers of β-catenin-positive osteoblasts were counted in three random high power fields in a 2-mm square, 1 mm distal to the lowest point of the growth plate in the secondary spongiosa. […]

LRP6-PTH1R complex = target: T1, LRP6-PTH1R complex (Rattus norvegicus, UniProt P25961); test: Co-immunoprecipitation of endogenous LRP6 and PTH1R in UMR-106 cells; type: cell-based; settings: IP with antibodies to LRP6, time-dependent
T1 construct: endogenous LRP6 and endogenous PTH1R in UMR-106 cells; endogenous in cells; host or cells: UMR-106
T1 sequence (P25961 27-591): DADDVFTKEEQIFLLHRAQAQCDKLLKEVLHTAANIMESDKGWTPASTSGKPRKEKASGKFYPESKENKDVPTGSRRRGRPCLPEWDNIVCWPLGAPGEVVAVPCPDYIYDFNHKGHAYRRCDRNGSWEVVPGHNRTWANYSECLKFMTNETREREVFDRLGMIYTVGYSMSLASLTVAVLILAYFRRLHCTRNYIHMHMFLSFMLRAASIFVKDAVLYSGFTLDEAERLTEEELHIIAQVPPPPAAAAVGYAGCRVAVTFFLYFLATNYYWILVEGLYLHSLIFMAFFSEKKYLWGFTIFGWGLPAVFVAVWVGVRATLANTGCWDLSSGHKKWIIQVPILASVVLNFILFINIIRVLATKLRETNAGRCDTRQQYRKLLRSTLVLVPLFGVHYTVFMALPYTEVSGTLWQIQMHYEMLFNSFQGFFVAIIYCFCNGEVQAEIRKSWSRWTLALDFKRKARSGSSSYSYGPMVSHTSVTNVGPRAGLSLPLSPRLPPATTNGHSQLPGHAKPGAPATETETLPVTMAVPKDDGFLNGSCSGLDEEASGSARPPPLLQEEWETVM
Description: Cells were harvested in cavitation buffer (5 mM HEPES, pH 7.4, 3 mM MgCl2, 1 mM EGTA, 250 mM sucrose) containing protease and phosphatase inhibitors and homogenized by nitrogen cavitation (200 p.s.i., for 5 minutes) in a cell disruption bomb (Parr Instrument Co.; Moline, Ill.). The cell homogenate was centrifuged twice at 700 g for 10 minutes to pellet the nuclei. The supernatant was further centrifuged at 100,000 g (Beckman SW50.1 rotor) for 1 hour to separate the membrane and cytosol fractions, and the resulting membrane pellet was washed three times with cavitation buffer before use in the assays (Zhang et al., Biochem. J. 343:541-9 (1999)). Immunoprecipitation and Western blot analysis of cell lysates were performed as described previously (Wan et al., Am. J. Pathol. 166:1379-92 (2005)).

Substance: Parathyroid hormone [PTH]
- phosphorylation of LRP6 in preosteoblasts or osteoblasts at the surface of trabecular bone ([1]; single dose of PTH (1-34) 40 μg/kg, antibody specific for phosphorylated PPPSP): stimulated
- amount of total LRP6 protein ([1]; single dose, same tissue): remained unchanged
- complex formation of PTH1R with endogenous LRP6 (LRP6-PTH1R complex): formed a complex with endogenous LRP6 in response to PTH in a time-dependent manner

Reference: US20110256557A1, “IDENTIFYING PARATHYROID HORMONE AGONISTS AND ANTAGONISTS” (DISCOVERYBIOMED, INC., priority 2008, published 2011)
